Experimental data from the supplement of paper PMC10307832.

Tests used:
Test in all cases: relative viability (nuclei count vs DMSO), 5 days (fraction); higher = more cells survive
EKVX = test system: EKVX
How it was run: (§1)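 Each reported value is a median over duplicate plates. It expresses relative viability: treated-well nuclei count divided by vehicle-well nuclei count. Lung cancer cell lines in 1536-well plates were dosed by pin tool a day after seeding, alone with one drug or with a fixed anchor-drug dose plus five library-drug doses (not always all listed) in √10 steps, and nuclei were counted after 5 days.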

NCI-H1755 = test system: NCI-H1755
How it was run: as §1

NCI-H1734 = test system: NCI-H1734
How it was run: as §1

NCI-H2342 = test system: NCI-H2342
How it was run: as §1

NCI-H1993 = test system: NCI-H1993
How it was run: as §1

NCI-H358 = test system: NCI-H358
How it was run: as §1

NCI-H838 = test system: NCI-H838
How it was run: as §1

PC-14 = test system: PC-14
How it was run: as §1

UMC-11 = test system: UMC-11
How it was run: as §1

NCI-H2009 = test system: NCI-H2009
How it was run: as §1

NCI-H647 = test system: NCI-H647
How it was run: as §1

HARA = test system: HARA
How it was run: as §1

NCI-H1355 = test system: NCI-H1355
How it was run: as §1

HOP-62 = test system: HOP-62
How it was run: as §1

COR-L23 = test system: COR-L23
How it was run: as §1

NCI-H2228 = test system: NCI-H2228
How it was run: as §1

NCI-H1793 = test system: NCI-H1793
How it was run: as §1

NCI-H1395 = test system: NCI-H1395
How it was run: as §1

NCI-H2347 = test system: NCI-H2347
How it was run: as §1

HCC-15 = test system: HCC-15
How it was run: as §1

SK-MES-1 = test system: SK-MES-1
How it was run: as §1

NCI-H2170 = test system: NCI-H2170
How it was run: as §1

COR-L 105 = test system: COR-L 105
How it was run: as §1

CC1(C)CCC(c2ccc(Cl)cc2)=C(CN2CCN(c3ccc(C(=O)NS(=O)(=O)c4ccc(N[C@H](CCN5CCOCC5)CSc5ccccc5)c(S(=O)(=O)C(F)(F)F)c4)cc3)CC2)C1 [Navitoclax] + O=C(CCCCCCC(=O)Nc1ccccc1)NO [Vorinostat] (partner 1 µM)
relative viability (EKVX; first compound 0.005 µM): 0.735
relative viability (EKVX; first compound 0.01581 µM): 0.911
relative viability (EKVX; first compound 0.05 µM): 0.668
relative viability (EKVX; first compound 0.1581 µM): 0.711
relative viability (EKVX; first compound 0.5 µM): 0.79
relative viability (NCI-H1755; first compound 0.005 µM): 0.778
relative viability (NCI-H1755; first compound 0.01581 µM): 0.798
relative viability (NCI-H1755; first compound 0.05 µM): 0.543
relative viability (NCI-H1755; first compound 0.1581 µM): 0.728
relative viability (NCI-H1755; first compound 0.5 µM): 0.691
relative viability (NCI-H1734; first compound 0.005 µM): 0.829
relative viability (NCI-H1734; first compound 0.01581 µM): 0.938
relative viability (NCI-H1734; first compound 0.1581 µM): 0.755
relative viability (NCI-H1734; first compound 0.5 µM): 0.703
relative viability (NCI-H2342; first compound 0.005 µM): 0.752
relative viability (NCI-H2342; first compound 0.01581 µM): 0.732
relative viability (NCI-H2342; first compound 0.05 µM): 0.814
relative viability (NCI-H2342; first compound 0.1581 µM): 0.804
relative viability (NCI-H2342; first compound 0.5 µM): 0.779
relative viability (NCI-H1993; first compound 0.005 µM): 0.74
relative viability (NCI-H1993; first compound 0.01581 µM): 0.81
relative viability (NCI-H1993; first compound 0.05 µM): 1
relative viability (NCI-H1993; first compound 0.1581 µM): 0.708
relative viability (NCI-H1993; first compound 0.5 µM): 0.703
relative viability (NCI-H358; first compound 0.005 µM): 0.705
relative viability (NCI-H358; first compound 0.01581 µM): 0.816
relative viability (NCI-H358; first compound 0.05 µM): 0.689
relative viability (NCI-H358; first compound 0.1581 µM): 0.652
relative viability (NCI-H358; first compound 0.5 µM): 0.848
relative viability (NCI-H838; first compound 0.005 µM): 0.678
relative viability (NCI-H838; first compound 0.01581 µM): 0.73
relative viability (NCI-H838; first compound 0.05 µM): 0.76
relative viability (NCI-H838; first compound 0.1581 µM): 0.73
relative viability (NCI-H838; first compound 0.5 µM): 0.667
relative viability (PC-14; first compound 0.005 µM): 0.746
relative viability (PC-14; first compound 0.01581 µM): 0.794
relative viability (PC-14; first compound 0.05 µM): 0.59
relative viability (PC-14; first compound 0.1581 µM): 0.712
relative viability (PC-14; first compound 0.5 µM): 0.687
relative viability (UMC-11; first compound 0.005 µM): 0.43
relative viability (UMC-11; first compound 0.01581 µM): 0.371
relative viability (UMC-11; first compound 0.05 µM): 0.39
relative viability (UMC-11; first compound 0.1581 µM): 0.312
relative viability (UMC-11; first compound 0.5 µM): 0.148
relative viability (NCI-H2009; first compound 0.005 µM): 0.719
relative viability (NCI-H2009; first compound 0.01581 µM): 0.88
relative viability (NCI-H2009; first compound 0.05 µM): 0.759
relative viability (NCI-H2009; first compound 0.1581 µM): 0.728
relative viability (NCI-H2009; first compound 0.5 µM): 0.719
relative viability (NCI-H647; first compound 0.005 µM): 0.536
relative viability (NCI-H647; first compound 0.01581 µM): 0.52
relative viability (NCI-H647; first compound 0.05 µM): 0.673
relative viability (NCI-H647; first compound 0.1581 µM): 0.405
relative viability (NCI-H647; first compound 0.5 µM): 0.512
relative viability (HARA; first compound 0.005 µM): 0.536
relative viability (HARA; first compound 0.01581 µM): 0.629
relative viability (HARA; first compound 0.1581 µM): 0.521
relative viability (HARA; first compound 0.5 µM): 0.55
relative viability (NCI-H1355; first compound 0.005 µM): 0.63
relative viability (NCI-H1355; first compound 0.01581 µM): 0.685
relative viability (NCI-H1355; first compound 0.05 µM): 0.618
relative viability (NCI-H1355; first compound 0.1581 µM): 0.637
relative viability (NCI-H1355; first compound 0.5 µM): 0.665
relative viability (HOP-62; first compound 0.005 µM): 0.669
relative viability (HOP-62; first compound 0.01581 µM): 0.644
relative viability (HOP-62; first compound 0.05 µM): 0.618
relative viability (HOP-62; first compound 0.1581 µM): 0.529
relative viability (HOP-62; first compound 0.5 µM): 0.842
relative viability (COR-L23; first compound 0.005 µM): 0.475
relative viability (COR-L23; first compound 0.01581 µM): 0.535
relative viability (COR-L23; first compound 0.05 µM): 0.425
relative viability (COR-L23; first compound 0.1581 µM): 0.386
relative viability (COR-L23; first compound 0.5 µM): 0.411
relative viability (NCI-H2228; first compound 0.005 µM): 1.13
relative viability (NCI-H2228; first compound 0.01581 µM): 0.639
relative viability (NCI-H2228; first compound 0.1581 µM): 0.397
relative viability (NCI-H2228; first compound 0.5 µM): 0.641
relative viability (NCI-H1793; first compound 0.005 µM): 0.744
relative viability (NCI-H1793; first compound 0.01581 µM): 0.873
relative viability (NCI-H1793; first compound 0.1581 µM): 0.667
relative viability (NCI-H1793; first compound 0.5 µM): 0.444
relative viability (NCI-H1395; first compound 0.005 µM): 0.653
relative viability (NCI-H1395; first compound 0.01581 µM): 0.862
relative viability (NCI-H1395; first compound 0.05 µM): 0.802
relative viability (NCI-H1395; first compound 0.1581 µM): 0.682
relative viability (NCI-H1395; first compound 0.5 µM): 0.659
relative viability (NCI-H2347; first compound 0.005 µM): 0.623
relative viability (NCI-H2347; first compound 0.01581 µM): 0.628
relative viability (NCI-H2347; first compound 0.05 µM): 0.534
relative viability (NCI-H2347; first compound 0.1581 µM): 0.61
relative viability (NCI-H2347; first compound 0.5 µM): 0.542
relative viability (HCC-15; first compound 0.005 µM): 0.808
relative viability (HCC-15; first compound 0.01581 µM): 0.831
relative viability (HCC-15; first compound 0.05 µM): 0.684
relative viability (HCC-15; first compound 0.1581 µM): 0.794
relative viability (HCC-15; first compound 0.5 µM): 0.809
relative viability (SK-MES-1; first compound 0.005 µM): 1.06
relative viability (SK-MES-1; first compound 0.01581 µM): 1.42
relative viability (SK-MES-1; first compound 0.05 µM): 1.15
relative viability (SK-MES-1; first compound 0.1581 µM): 1.1
relative viability (SK-MES-1; first compound 0.5 µM): 1.17
relative viability (NCI-H2170; first compound 0.005 µM): 0.818
relative viability (NCI-H2170; first compound 0.01581 µM): 0.926
relative viability (NCI-H2170; first compound 0.05 µM): 0.736
relative viability (NCI-H2170; first compound 0.1581 µM): 0.771
relative viability (NCI-H2170; first compound 0.5 µM): 0.622
relative viability (COR-L 105; first compound 0.005 µM): 0.853
relative viability (COR-L 105; first compound 0.01581 µM): 0.946
relative viability (COR-L 105; first compound 0.05 µM): 0.858
relative viability (COR-L 105; first compound 0.1581 µM): 0.778
relative viability (COR-L 105; first compound 0.5 µM): 0.745
